Among the data in patent US8541572B2 are IC50 values, retold here.

Read-outs that look alike come from different tables or passages of the source.

This experiment relates to TNF-α production in LPS-stimulated human whole blood. Put plainly: Inhibition of TNF-α production from human whole blood (hWBA). It is filed as cell-based. To be noted: LPS-stimulated human whole blood, read-out: hWBA.
Setting [1] is: Homo sapiens, IC50 for TNF-α production.
Where [2] appears, read: IC50 for inhibition of TNF-α production.
[3] abbreviates: Homo sapiens, IC50 for inhibition of TNF-α production.

Regarding `COc1ccc2c(c1)C(=O)N(C[C@@]1(C#Cc3ccc(C(=NO)N4CCN(c5ccccc5)CC4)cc3)NC(=O)NC1=O)C2` [Compound 928], the IC50 under setting [1] was 0.278 µM. On to `COc1ccc2c(c1F)C(=O)N(C[C@@]1(C#Cc3ccc(N4CCNCC4)cc3)NC(=O)NC1=O)C2` [Compound 1706], for which the IC50 under setting [2] was found to be 0.118 µM. Regarding `COc1ccc2c(c1)C(=O)N(C[C@@]1(C#Cc3ccc(C(C)(C)C(N)=O)cc3)NC(=O)NC1=O)C2` [Compound 2262], under setting [1], the IC50 is 0.517 µM. In the case of `COc1ccc2c(c1)C(=O)N(C[C@@]1(C#Cc3cncc(-c4cc[nH]n4)c3)NC(=O)NC1=O)C2` [Compound 2234], the IC50 under setting [3] worked out at 0.678 µM.

On to `COc1ccc2c(c1)C(=O)N(C[C@@]1(C#Cc3ccc(C(=NO)N4CCSCC4)cc3)NC(=O)NC1=O)C2` [Compound 912], for which the IC50 (IC50 for TNF-α production) worked out at 0.153 µM. As for `COc1ccc2c(c1)C(=O)N(C[C@@]1(C#Cc3nc(N4CCN(c5ccncc5)CC4)ccc3OC)NC(=O)NC1=O)C2` [Compound 2205], the IC50 under setting [2] was 7.27 µM.

`COc1ccc2c(c1F)C(=O)N(C[C@@]1(C#Cc3ccc(CN4CCN(C5CCCCC5)CC4)cc3)NC(=O)NC1=O)C2` [Compound 982]: under setting [3], the IC50 was determined as 0.255 µM. With `CCN1CCN(c2ccc(O)c(-c3ccc(C#C[C@]4(CN5Cc6ccc(OC)cc6C5=O)NC(=O)NC4=O)cc3)n2)CC1` [Compound 936], the IC50 (IC50 for TNF-α production) is 0.0724 µM. `COc1ccc2c(c1)C(=O)N(C[C@@]1(C#Cc3ccc(C(c4ccc[nH]4)c4ccc[nH]4)cc3)NC(=O)NC1=O)C2` [Compound 2201]: the IC50 under setting [3] was found to be 1.2 µM. Take `COc1ccc2c(c1F)C(=O)N(C[C@@]1(C#Cc3ccc(CN4CCCCC4)nc3)NC(=O)NC1=O)C2` [Compound 967]: the IC50 under setting [2] came to 0.785 µM. Regarding `COc1ccc2c(c1)C(=O)N(C[C@@]1(C#Cc3ccc(-c4cn[nH]c4N)cc3)NC(=O)NC1=O)C2` [Compound 2296], under setting [1], the IC50 was determined as 0.236 µM. For the molecule `COc1ccc2c(c1F)C(=O)N(C[C@@]1(C#Cc3ccc(-c4cccc(N5CCOCC5)n4)c(F)c3)NC(=O)NC1=O)C2` [Compound 996], the IC50 under setting [3] is 2.56 µM. Regarding `COc1ccc2c(c1)C(=O)N(C[C@@]1(C#Cc3ccc4c(c3)C(C)Oc3cccnc3-4)NC(=O)NC1=O)C2` (some centres unmarked) [Compound 929], the IC50 under setting [1] amounted to 3.55 µM. As to `COc1ccc2c(c1)C(=O)N(C[C@@]1(C#Cc3ccc(-c4ncccc4OC(=O)C(C)(C)C)cc3)NC(=O)NC1=O)C2` [Compound 1008], the IC50 under setting [2] came out at 0.342 µM.

As for `COc1ccc2c(c1F)C(=O)N(C[C@@]1(C#Cc3ccc(-c4cccc(N5CCSCC5)n4)cc3)NC(=O)NC1=O)C2` [Compound 999], under setting [2], the IC50 came to 4.15 µM. Turning to `CSc1ccc2c(c1)C(=O)N(C[C@@]1(C#Cc3cccnc3)NC(=O)NC1=O)C2` [Compound 312], under setting [3], the IC50 amounted to 0.651 µM.

For `COc1ccc2c(c1)C(=O)N(C[C@@]1(C#Cc3cccc(C(=NO)N4CCN(C)CC4)c3)NC(=O)NC1=O)C2` [Compound 915], the IC50 (IC50 for TNF-α production) stood at 0.221 µM. With `COc1ccc2c(c1)C(=O)N(C[C@@]1(C#Cc3ccc(C(=NO)N4CCCCC4)cc3)NC(=O)NC1=O)C2` [Compound 946], the IC50 under setting [1] amounted to 0.154 µM. In the case of `CCN1CCN(c2cccc(-c3ccc(C#C[C@]4(CN5Cc6ccc(OC)c(F)c6C5=O)NC(=O)NC4=O)cc3)n2)CC1` [Compound 991], under setting [2], the IC50 came out at 0.606 µM. On to `COc1ccc2c(c1)C(=O)N(C[C@@]1(C#Cc3ccc(N4CCC5(CC4)NC(=O)NC5=O)nc3)NC(=O)NC1=O)C2` [Compound 2311], for which the IC50 under setting [1] turned out to be 0.348 µM. Regarding `CCN1CCN(C(C)c2ccc(C#C[C@]3(CN4Cc5ccc(OC)c(F)c5C4=O)NC(=O)NC3=O)cc2)CC1` (some centres unmarked) [Compound 984], the IC50 under setting [2] was 0.695 µM. Turning to `CCN1CCN(C(=NO)c2cncc(C#C[C@]3(CN4Cc5ccc(OC)cc5C4=O)NC(=O)NC3=O)c2)CC1` [Compound 923], the IC50 under setting [1] came to 0.435 µM.

As for `COc1ccc2c(c1)C(=O)N(C[C@@]1(C#Cc3cncc(-c4cn[nH]c4)c3)NC(=O)NC1=O)C2` [Compound 2207], under setting [2], the IC50 worked out at 0.26 µM. Consider `COc1ccc2c(c1)C(=O)N(C[C@@]1(C#Cc3ccc(C(=NO)N4CCN(C5CCCCC5)CC4)cc3)NC(=O)NC1=O)C2` [Compound 926], for which the IC50 (IC50 for TNF-α production) amounted to 0.076 µM. On to `COc1ccc2c(c1)C(=O)N(C[C@@]1(C#Cc3cncc(-c4ccc(C(N)=O)o4)c3)NC(=O)NC1=O)C2` [Compound 2213], for which the IC50 under setting [3] amounted to 0.776 µM. Consider `COc1ccc2c(c1)C(=O)N(C[C@@]1(C#Cc3ccc(C(=NO)N4CCN(C5CCCCCC5)CC4)cc3)NC(=O)NC1=O)C2` [Compound 927], for which the IC50 under setting [1] was 0.151 µM.

As for `COc1ccc2c(c1)C(=O)N(CC1(C#Cc3cccc4c3CCC43NC(=O)NC3=O)NC(=O)NC1=O)C2` (centres unmarked) [Compound 1318], the IC50 under setting [3] was > 1 µM. In the case of `COc1ccc2c(c1)C(=O)N(C[C@@]1(C#Cc3cccnc3-c3c(C)nn(C)c3C)NC(=O)NC1=O)C2` [Compound 2264], the IC50 (IC50 for TNF-α production) worked out at 2.54 µM. Take `CCN1CCN(/C(=N\O)c2ccc(C#C[C@]3(CN4Cc5ccc(OC)c(F)c5C4=O)NC(=O)NC3=O)cc2F)[C@@H](C)C1` [Compound 1311]: the IC50 under setting [2] was 0.069 µM.

With `COc1ccc2c(c1)C(=O)N(C[C@@]1(C#Cc3ccc(-c4ccccc4O)cc3)NC(=O)NC1=O)C2` [Compound 969], the IC50 under setting [3] was found to be 0.652 µM. As for `COc1ccc2c(c1)C(=O)N(C[C@@]1(C#Cc3ccc4c(O)nn(C)c4c3)NC(=O)NC1=O)C2` [Compound 715], under setting [2], the IC50 was found to be 0.456 µM. With `CCN1CCN(C(=NO)c2ccc(C#C[C@]3(CN4CCc5cc(OC)ccc5C4=O)NC(=O)NC3=O)cc2)CC1` [Compound 2316], the IC50 (IC50 for TNF-α production) is 0.335 µM. In the case of `CCOC(=O)Nc1cncc(C#C[C@]2(CN3Cc4ccc(OC)cc4C3=O)NC(=O)NC2=O)c1` [Compound 2243], under setting [2], the IC50 amounted to 1.23 µM. Take `COc1ccc2c(c1)C(=O)N(C[C@@]1(C#Cc3ccc(C(=NO)N4[C@H](C)CNC[C@@H]4C)cc3)NC(=O)NC1=O)C2` [Compound 2294]: the IC50 (IC50 for TNF-α production) was 0.327 µM. Consider `COc1ccc2c(c1)C(=O)N(C[C@@]1(C#Cc3ccc(-c4ccccc4O)cc3)NC(=O)NC1=O)C2` [Compound 955], for which the IC50 (IC50 for TNF-α production) is 0.652 µM. In the case of `COc1ccc2c(c1)C(=O)N(C[C@@]1(C#Cc3ccc(-n4ccnc4)cc3)NC(=O)NC1=O)C2` [Compound 1160], the IC50 under setting [3] was found to be 0.786 µM. For the molecule `COc1ccc2c(c1)C(=O)N(C[C@@]1(C#Cc3cccc(N4CCSCC4)n3)NC(=O)NC1=O)C2` [Compound 997], the IC50 under setting [3] was found to be 4.32 µM.

Turning to `COc1ccc2c(c1)C(=O)N(C[C@@]1(C#Cc3ccc(N4CCC(=O)CC4)nc3)NC(=O)NC1=O)C2` [Compound 2211], the IC50 under setting [2] amounted to 1 µM. For `COc1ccc(N2CCC2=O)nc1C#C[C@]1(CN2Cc3ccc(OC)c(F)c3C2=O)NC(=O)NC1=O` [Compound 1508], the IC50 under setting [3] stood at 1.17 µM. For the molecule `CCN1CCN(C(=O)c2ccc(C#C[C@]3(CN4Cc5ccc(OC)cc5C4=O)NC(=O)NC3=O)cc2)CC1` [Compound 960], the IC50 under setting [3] worked out at 0.446 µM. On to `COc1ccc2c(c1)C(=O)N(C[C@@]1(C#Cc3ccc(C(=NO)N4CCC(=O)CC4)cc3)NC(=O)NC1=O)C2` [Compound 945], for which the IC50 (IC50 for TNF-α production) was determined as 0.086 µM. Consider `COc1ccc2c(c1)C(=O)N(C[C@]1(C#Cc3cncc(C(=O)NN)c3)NC(=O)NC1=O)C2` [Compound 2256], for which the IC50 under setting [1] amounted to 1 µM. Consider `COc1ccc2c(c1F)C(=O)N(C[C@@]1(C#Cc3ccc4c(c3)CN(C)C(=O)N4)NC(=O)NC1=O)C2` [Compound 307], for which the IC50 under setting [2] came to 0.281 µM. As for `COc1ccc2c(c1F)C(=O)N(C[C@@]1(C#Cc3ccc4c(c3)C3(CC4)NC(=O)NC3=O)NC(=O)NC1=O)C2` (some centres unmarked) [Compound 1304], the IC50 under setting [2] was found to be 0.367 µM. `COc1ccc2c(c1)C(=O)N(C[C@@]1(C#Cc3ccc(C4(C5CCC5)NC(=O)NC4=O)cc3)NC(=O)NC1=O)C2` (some centres unmarked) [Compound 906]: the IC50 under setting [1] worked out at 0.382 µM. Consider `COc1ccc2c(c1)C(=O)N(C[C@@]1(C#Cc3cncc(NC(C)=O)c3)NC(=O)NC1=O)C2` [Compound 2242], for which, under setting [2], the IC50 amounted to 0.444 µM. For the molecule `COc1ccc2c(c1)C(=O)N(C[C@@]1(C#Cc3ccccc3C=O)NC(=O)NC1=O)C2` [Compound 1918], the IC50 under setting [3] is 0.936 µM. For the molecule `COc1ccc2c(c1)C(=O)N(C[C@@]1(C#Cc3ccc(-c4ccc(F)cc4O)nc3)NC(=O)NC1=O)C2` [Compound 1316], under setting [3], the IC50 worked out at 9.46 µM.

For `COc1ccc2c(c1)C(=O)N(C[C@@]1(C#Cc3ccc(N4C(=O)CCC4C(=O)N4CCN(C)CC4)cc3)NC(=O)NC1=O)C2` (some centres unmarked) [Compound 1905], the IC50 under setting [2] was determined as 0.416 µM. As to `COc1ccc2c(c1)C(=O)N(C[C@@]1(C#Cc3ccc(C4(C)NC(=O)NC4=O)cc3C)NC(=O)NC1=O)C2` (some centres unmarked) [Compound 2257], the IC50 under setting [1] was 0.49 µM. For `COc1ccc2c(c1)C(=O)N(C[C@@]1(C#Cc3ccc(-n4c(-c5cccnc5)n[nH]c4=O)cc3)NC(=O)NC1=O)C2` [Compound 1916], the IC50 under setting [3] was determined as 0.258 µM. Regarding `COc1ccc2c(c1)C(=O)N(C[C@@]1(C#Cc3ccc(N4C(=O)CCC4(C(=O)O)C(C)(C)O)nc3)NC(=O)NC1=O)C2` (some centres unmarked) [Compound 1906], the IC50 under setting [2] came to 0.578 µM. On to `COc1ccc2c(c1)CCN(C[C@@]1(C#Cc3ccc(C(=NO)N4CCCN(C)CC4)cc3)NC(=O)NC1=O)C2=O` [Compound 2317], for which the IC50 (IC50 for TNF-α production) stood at 0.639 µM.

For the molecule `COc1ccc2c(c1)C(=O)N(C[C@@]1(C#Cc3nc(-c4cccc(C#N)c4)ccc3OC)NC(=O)NC1=O)C2` [Compound 1501], under setting [3], the IC50 was 1000 µM.

In the case of `COc1ccc2c(c1)C(=O)N(C[C@@]1(C#Cc3ccc(C(=NO)N4CCN(C5CC5)CC4)cc3)NC(=O)NC1=O)C2` [Compound 922], the IC50 (IC50 for TNF-α production) stood at 0.092 µM. Consider `CCN1CCN(c2ccc(OC)c(-c3ccc(C#C[C@]4(CN5Cc6ccc(OC)cc6C5=O)NC(=O)NC4=O)cc3)n2)CC1` [Compound 972], for which the IC50 under setting [2] is 0.573 µM.

Take `COc1ccc2c(c1)C(=O)N(C[C@@]1(C#Cc3ccc(C(=O)N4CCN(C5CCCCC5)CC4)cc3)NC(=O)NC1=O)C2` [Compound 962]: the IC50 under setting [2] was determined as 0.578 µM. Take `COc1ccc2c(c1)C(=O)N(C[C@@]1(C#Cc3cncc(C(=NO)N4CCCN(C)CC4)c3)NC(=O)NC1=O)C2` [Compound 924]: the IC50 (IC50 for TNF-α production) stood at 1.32 µM.

`COc1ccc2c(c1F)C(=O)N(C[C@@]1(C#Cc3ccc(C(CN)N4CCC(N)C4)cc3)NC(=O)NC1=O)C2` (some centres unmarked) [Compound 1704]: the IC50 under setting [2] worked out at 0.109 µM.
